Values of other authors, collected in patent US6045822A, “Liposome preparations of indolocarbazole derivatives description” (Kyowa Hakko Kogyo Co., Ltd., priority 1996, dated 2000).

Tests used:
[1] = system: protein kinase C; conditions: in words; J. Antibiotics., 40, 1782 (1987)
[2] = in words; Cancer Res., 51, 4888 (1991)

CNC1CC2OC(C)(C1OC)n1c3ccccc3c3c4c(c5c6ccccc6n2c5c31)C(=O)NC4O (centres unmarked) [UCN-01]
protein kinase C inhibitory activity [1]: has protein kinase C inhibitory activity
anti-tumor activity [2]: has anti-tumor activity
